In brackets after ≈: the same amount, converted by molar mass.
Key:
ADV7 = conditions: cited from earlier work
[1] = tested on: herpes simplex virus 1 (HSV-1); assay: Plaque reduction assay; assay type: cell-based; conditions: Human alphaherpesvirus 1

Row | IC50 [1] [µg/mL] | Structure (SMILES) | EC50 (ADV7) [µg/mL]
1 |  | NC(=O)c1ncn([C@@H]2O[C@H](CO)[C@@H](O)[C@H]2O)n1 [ribavirin] | 27.8 (≈ 114 µM)
2 | 0.07 (≈ 0.311 µM) | Nc1nc2c(ncn2COCCO)c(=O)[nH]1 [acyclovir] | 

From PMC9557897 (ACS Omega, 2022)
